Read-outs that look alike come from different tables or passages of the source.
Molecular target: AM2 (Influenza A virus, UniProt P0DOF5)
Experiment: biochemical
Type: biochemical
Conditions: for % Activity: AM2; for change of potency on replacing or installing the head group: compared with the parent compound (BL-1743; 12 for 13)

Chain of AM2 (P0DOF5 whole entry): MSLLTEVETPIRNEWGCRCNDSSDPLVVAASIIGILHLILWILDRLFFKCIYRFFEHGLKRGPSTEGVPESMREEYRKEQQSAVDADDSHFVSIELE

Row | SMILES | % Activity | change of potency on replacing or installing the head group | further results
1 | CC1(C)CCNCC1.Cl [Compound 22, 4,4-Dimethyl-piperidine hydrochloride] | 22 (55%) |  | 
2 | NC1CCC2(CCCCC2)CC1 [Compound 8, Spiro[5.5]undec-3-ylamine] | 11% |  | 
3 | OC(c1cnc[nH]1)N1CCC2(CCCCC2)CC1 (stereo not drawn) [Compound 19, (3-Aza-spiro[5.5]undec-3-yl)-(3H-imidazol-4-yl)-methanol] | 30% |  | 
4 | C1CCC2(C1)CCNCC2 [Compound 12, 8-Aza-spiro[4.5]decane] | 12 (16.2%) |  | IC50 (Table 1, read-out: IC50): 8.14 µM
5 | NC1CC2CC1C1CCCC21 (stereo not drawn) [Compound 16, tricyclo[5.2.1.0 2,6]dec-8-ylaminium chloride] |  |  | IC50: 15.3 µM
6 | C1CCC2(C1)CCN(C1=NCCN1)CC2 [Compound 13, 8-(4,5-Dihydro-1H-imidazol-2-yl)-8-aza-spiro[4.5]decane] |  | detrimental to the activity | 
7 | CN1CCC2(CCCCC2)CC1.Cl [Compound 3, 3-methyl-3-azoniaspiro[5.5]undecane chloride] | 7% |  | IC50 (Table 1, read-out: IC50): 20.6 µM
8 | NS(=O)(=O)N1CCC2(CCCCC2)CC1 [Compound 6, 3-Aza-spiro[5,5]undecane-3-sulfonic acid amide] | 6 (14%) | Increases of potency | IC50 (Table 1, read-out: IC50): 15.3 µM
9 | C1CCC2(CC1)CCNC2.Cl [Compound 23, 2-Aza-spiro[4.5]decane hydrochloride] | 23 (6%) |  | 
10 | NC(=O)N1CCC2(CCCCC2)CC1 [Compound 4, 3-Aza-spiro[5.5]undecane-3-carboxylic acid amide] | 30% | no improvement of potency | 
11 | CNC1CC2CC1C1CCCC21 (stereo not drawn) [Compound 17, N-methyl-N-tricyclo[5.2.1.0 2,6]dec-8-ylaminium chloride] |  |  | IC50: 13.6 µM
12 | S=C1CCCC(=S)C12CCNCC2 [Compound 11, 3-Aza-spiro[5.5]undecane-7,11-dithione] | 12% |  | IC50 (SAR of BL-1743, read-out: IC50): 37.6 µM
13 | N=C(N)N1CCC2(CCCCC2)CC1 [Compound 7, 3-Aza-spiro[5,5]undecane-3-carboxamidine] | 13% | Increases of potency | IC50 (Table 1, read-out: IC50): 22.8 µM
14 | O=C1CCCC(=O)C12CCNCC2 [Compound 10, 3-Aza-spiro[5.5]undecane-7,11-dione] | 100% |  | IC50 (SAR of BL-1743, read-out: IC50): > 100 µM; activity at 100 μM (at 100 μM tested): no activity
15 | C1CCC2CN(C3=NCCN3)CCC2C1 (mixture of isomers) [Compound 15, 2-(octahydroisoquinolin-2(1H)-yl)-4,5-dihydro-1H-imidazol-1-ium iodide] |  |  | IC50: 29.5 µM
16 | NC(=S)N1CCC2(CCCCC2)CC1 [Compound 5, 3-Aza-spiro[5,5]undecane-3-carbothioic acid amide] | 60% | no improvement of potency | 
